Measurements published in patent US12492188B2, “1H-benzo[D]imidazole derivatives as TLR9 inhibitors for the treatment of fibrosis” (BRISTOL-MYERS SQUIBB COMPANY, priority 2020, dated 2025).
Where two headings read alike, the source gives them in different places.

Assays:
Assay type in all cases: cell-based
human TLR8 = target: T1, human TLR8 (Homo sapiens, UniProt Q9NR97); experiment: TLR8 inhibition reporter assay (HEK-Blue cells, secreted embryonic alkaline phosphatase reporter); conditions: HEK-Blue cells overexpressing human TLR8, stimulated with R848 15.9 μM; read-out: TLR 8 IC50
T1 construct: host or cells: HEK-Blue cells (HEK293-derived reporter line)
T1 sequence (Q9NR97 27-1041): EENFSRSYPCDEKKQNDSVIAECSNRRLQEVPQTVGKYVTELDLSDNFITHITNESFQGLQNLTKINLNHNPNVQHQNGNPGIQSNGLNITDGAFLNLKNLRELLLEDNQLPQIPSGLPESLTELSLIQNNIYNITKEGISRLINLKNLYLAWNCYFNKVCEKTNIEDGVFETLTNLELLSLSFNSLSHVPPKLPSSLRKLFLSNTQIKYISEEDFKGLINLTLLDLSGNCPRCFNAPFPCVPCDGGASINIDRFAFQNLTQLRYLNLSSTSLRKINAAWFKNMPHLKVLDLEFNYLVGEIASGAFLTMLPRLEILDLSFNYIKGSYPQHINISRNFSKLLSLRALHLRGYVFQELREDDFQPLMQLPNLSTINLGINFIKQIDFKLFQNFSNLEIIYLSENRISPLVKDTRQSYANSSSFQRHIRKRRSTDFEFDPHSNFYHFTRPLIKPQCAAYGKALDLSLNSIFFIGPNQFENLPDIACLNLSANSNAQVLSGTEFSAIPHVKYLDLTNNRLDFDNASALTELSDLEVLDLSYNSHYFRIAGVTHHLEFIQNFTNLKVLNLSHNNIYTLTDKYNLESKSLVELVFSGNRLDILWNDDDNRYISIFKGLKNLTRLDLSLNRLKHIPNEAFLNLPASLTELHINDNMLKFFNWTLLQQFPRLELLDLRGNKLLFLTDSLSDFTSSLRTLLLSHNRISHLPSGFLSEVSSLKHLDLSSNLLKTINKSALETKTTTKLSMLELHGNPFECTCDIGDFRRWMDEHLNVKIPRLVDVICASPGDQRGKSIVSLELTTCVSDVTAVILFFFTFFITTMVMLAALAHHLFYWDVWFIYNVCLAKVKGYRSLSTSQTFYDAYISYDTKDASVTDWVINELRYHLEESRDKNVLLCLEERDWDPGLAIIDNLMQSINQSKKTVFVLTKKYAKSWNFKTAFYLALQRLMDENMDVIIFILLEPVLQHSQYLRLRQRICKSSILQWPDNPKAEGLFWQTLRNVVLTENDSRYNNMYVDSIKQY
Protocol: TLR7/8/9 Inhibition Reporter Assays
HEK-Blue™-cells (Invivogen) overexpressing human TLR7, TLR8 or TLR9 receptors were used for screening inhibitors of these receptors using an inducible SLAP (secreted embryonic alkaline phosphatase) reporter gene under the control of the […] minimal promoter fused to five NF-κB and AP-1-binding sites. Briefly, cells are seeded into Greiner 384 well plates (15000 cells per well for TLR7, 20,000 for TLR8 and 25,000 for TLR9) and then treated with test compounds in DMSO to yield a final dose response concentration range of 0.05 nM-50 μM. After a 30 minute compound pre-treatment at room temperature, the cells are then stimulated with a TLR7 ligand (gardiquimod at a final concentration of 7.5 μM), TLR8 ligand (R848 at a final concentration of 15.9 μM) or TLR9 ligand (ODN2006 at a final concentration of 5 nM) to activate NF-κB and AP-1 which induce the production of SLAP. After a 22 hour incubation at 37° C., […], SLAP levels are determined with the addition of HEK-Blue™ Detection reagent (Invivogen), a cell culture medium that allows for detection of SLAP, according to manufacturer's specifications. The percent inhibition is determined as the […] in the HEK-Blue signal present in wells treated with agonist plus DMSO alone compared to wells treated with a known inhibitor.

human TLR7 = target: T2, human TLR7 (Homo sapiens, UniProt Q9NYK1); experiment: TLR7 inhibition reporter assay (HEK-Blue cells, secreted embryonic alkaline phosphatase reporter); conditions: HEK-Blue cells overexpressing human TLR7, stimulated with gardiquimod 7.5 μM; read-out: TLR 7 IC50
T2 construct: host or cells: HEK-Blue cells (HEK293-derived reporter line)
T2 sequence (Q9NYK1 27-1049): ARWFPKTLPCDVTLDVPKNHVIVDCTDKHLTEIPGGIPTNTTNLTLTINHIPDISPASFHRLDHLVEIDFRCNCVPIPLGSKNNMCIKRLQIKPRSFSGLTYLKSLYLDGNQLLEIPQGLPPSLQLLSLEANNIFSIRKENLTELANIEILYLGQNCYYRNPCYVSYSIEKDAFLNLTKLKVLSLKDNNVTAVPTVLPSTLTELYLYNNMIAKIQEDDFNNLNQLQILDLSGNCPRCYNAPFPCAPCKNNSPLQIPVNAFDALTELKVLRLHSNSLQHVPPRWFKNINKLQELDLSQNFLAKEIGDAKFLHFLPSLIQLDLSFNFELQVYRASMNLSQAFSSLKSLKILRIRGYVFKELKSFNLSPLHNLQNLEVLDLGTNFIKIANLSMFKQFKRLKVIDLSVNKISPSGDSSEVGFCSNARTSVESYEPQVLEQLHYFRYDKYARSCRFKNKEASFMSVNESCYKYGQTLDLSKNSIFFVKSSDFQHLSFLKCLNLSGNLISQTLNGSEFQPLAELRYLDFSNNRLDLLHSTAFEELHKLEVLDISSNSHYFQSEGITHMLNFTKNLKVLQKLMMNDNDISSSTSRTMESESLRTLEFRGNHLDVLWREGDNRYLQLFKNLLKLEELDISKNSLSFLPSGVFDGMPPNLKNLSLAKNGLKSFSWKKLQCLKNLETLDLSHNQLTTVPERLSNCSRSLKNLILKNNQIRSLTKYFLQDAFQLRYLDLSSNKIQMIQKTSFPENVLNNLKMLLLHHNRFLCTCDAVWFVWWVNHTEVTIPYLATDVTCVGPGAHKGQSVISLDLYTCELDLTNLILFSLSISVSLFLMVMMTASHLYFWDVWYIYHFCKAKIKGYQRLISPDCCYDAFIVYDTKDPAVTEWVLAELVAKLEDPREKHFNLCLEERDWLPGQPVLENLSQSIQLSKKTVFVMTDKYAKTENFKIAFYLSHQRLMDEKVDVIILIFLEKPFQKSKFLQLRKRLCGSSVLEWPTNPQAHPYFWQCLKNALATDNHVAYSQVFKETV
Procedure, shortened: (§1)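 Read-out is SEAP colour from HEK-Blue Detection medium after 22 h at 37 °C, converted to percent inhibition between agonist-plus-DMSO and reference-inhibitor wells. Receptor-overexpressing HEK-Blue cells received compound over 0.05 nM–50 μM for 30 min before agonist: gardiquimod 7.5 μM for TLR7, R848 15.9 μM for TLR8, ODN2006 5 nM for TLR9.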

human TLR9 = target: T3, human TLR9 (Homo sapiens, UniProt Q9NR96); experiment: TLR9 inhibition reporter assay (HEK-Blue cells, secreted embryonic alkaline phosphatase reporter)
T3 construct: host or cells: HEK-Blue cells (HEK293-derived reporter line)
T3 sequence (Q9NR96 26-1032): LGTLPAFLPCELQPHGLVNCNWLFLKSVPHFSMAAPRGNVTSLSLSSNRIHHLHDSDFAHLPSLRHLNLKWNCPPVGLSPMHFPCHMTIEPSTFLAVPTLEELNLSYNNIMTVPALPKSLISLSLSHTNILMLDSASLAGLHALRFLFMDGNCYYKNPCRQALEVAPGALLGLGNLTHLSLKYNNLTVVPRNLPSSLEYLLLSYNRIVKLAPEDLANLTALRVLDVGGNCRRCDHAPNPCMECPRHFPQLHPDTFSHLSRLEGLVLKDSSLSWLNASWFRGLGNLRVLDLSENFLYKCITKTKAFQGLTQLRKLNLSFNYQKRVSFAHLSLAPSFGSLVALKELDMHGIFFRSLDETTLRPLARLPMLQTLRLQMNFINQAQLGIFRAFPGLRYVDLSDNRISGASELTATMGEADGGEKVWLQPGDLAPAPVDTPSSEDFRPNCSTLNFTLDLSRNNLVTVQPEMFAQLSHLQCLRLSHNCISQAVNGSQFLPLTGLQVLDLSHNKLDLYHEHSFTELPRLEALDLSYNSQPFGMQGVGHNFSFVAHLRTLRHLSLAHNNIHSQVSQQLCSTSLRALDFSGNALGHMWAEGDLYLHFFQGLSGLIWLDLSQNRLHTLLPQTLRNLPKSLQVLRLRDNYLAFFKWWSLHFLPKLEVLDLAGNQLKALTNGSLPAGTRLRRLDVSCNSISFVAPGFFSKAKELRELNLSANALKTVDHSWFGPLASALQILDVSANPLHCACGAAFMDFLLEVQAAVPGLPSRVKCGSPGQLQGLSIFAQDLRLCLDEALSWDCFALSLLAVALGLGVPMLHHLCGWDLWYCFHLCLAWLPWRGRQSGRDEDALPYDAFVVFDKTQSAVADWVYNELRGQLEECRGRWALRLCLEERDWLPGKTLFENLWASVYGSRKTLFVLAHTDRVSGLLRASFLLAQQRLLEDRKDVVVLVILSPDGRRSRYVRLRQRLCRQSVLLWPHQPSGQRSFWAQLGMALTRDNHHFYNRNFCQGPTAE
Procedure, shortened: as §1

[1] = HEK-Blue cells overexpressing human TLR9, stimulated with ODN2006 5 nM, read-out: TLR 9 IC50

Row | SMILES | IC50 (human TLR8) [µM] | IC50 (human TLR7) [µM] | IC50 (human TLR9) [µM] | IC50 (human TLR9; [1]) [µM] | IC50 (human TLR9; HEK-Blue cells overexpressing human TLR9, stimulated with ODN2006 5 nM, 22 hour incubation, reporter readout) [µM] | IC50 (human TLR9; HEK-Blue human TLR9 reporter cells) [µM]
1 | COc1ccc(-c2nc3c(C)cc(C4CCN(C5CC6CCC(C5)N6C5COC5)CC4)cc3n2C)cc1OC (single isomer, unassigned) [Example 164, 2-(3,4-dimethoxyphenyl)-1,4-dimethyl-6-(1-(8-(oxetan-3-yl)-8-azabicyclo[3.2.1]octan-3-yl)piperidin-4-yl)-1H-benzo[d]imidazole] | > 25 | > 25 | 0.11 | 0.109 | – | –
2 | CC(C)N1C2CCC1CC(N1CCC(c3ccc4nc(-c5ccc(S(C)(=O)=O)cc5)[nH]c4c3F)CC1)C2 (single isomer, unassigned) [Example 94, 7-fluoro-6-(1-(8-isopropyl-8-azabicyclo[3.2.1]octan-3-yl)piperidin-4-yl)-2-(4-(methylsulfonyl)phenyl)-1H-benzo[d]imidazole] | > 50 | > 50 | – | – | 0.073 | –
3 | COCCN1C2CCC1CC(N1CCC(c3cc4nc(-c5ccc(S(C)(=O)=O)cc5)n(C)c4cc3F)CC1)C2 (stereo not shown) [Example 257, 6-fluoro-5-(1-(8-(2-methoxyethyl)-8-azabicyclo[3.2.1]octan-3-yl)piperidin-4-yl)-1-methyl-2-(4-(methylsulfonyl)phenyl)-1H-benzo[d]imidazole] | > 50 | 30.7 | 0.049 | 0.049 | – | –
4 | Cn1c(-c2ccc(S(C)(=O)=O)cc2)nc2cc(C3CCN(C4CC5CCC(C4)N5C4CCOCC4)CC3)c(F)cc21 (single isomer, unassigned) [Example 256, 6-fluoro-1-methyl-2-(4-(methylsulfonyl)phenyl)-5-(1-(8-(tetrahydro-2H-pyran-4-yl)-8-azabicyclo[3.2.1]octan-3-yl)piperidin-4-yl)-1H-benzo[d]imidazole] | > 50 | 17.6 | 0.32 | 0.315 | – | –
5 | COCCN1CCCC(N2CCC(c3cc(F)c4nc(-c5ccc(S(C)(=O)=O)cc5)n(C)c4c3)CC2)CC1 (single isomer, unassigned) [Example 303, 4-fluoro-6-(1-(1-(2-methoxyethyl)azepan-4-yl)piperidin-4-yl)-1-methyl-2-(4-(methylsulfonyl)phenyl)-1H-benzo[d]imidazole] | > 50 | 4.2 | – | 0.014 | – | 0.014
6 | Cn1c(-c2ccc(S(C)(=O)=O)cc2)nc2ccc(C3CCN(C4CC5CCC(C4)N5C4CCOCC4)CC3)c(F)c21 (stereo not shown) [Example 274, 7-fluoro-1-methyl-2-(4-(methylsulfonyl)phenyl)-6-(1-(8-(tetrahydro-2H-pyran-4-yl)-8-azabicyclo[3.2.1]octan-3-yl)piperidin-4-yl)-1H-benzo[d]imidazole] | > 50 | 26.1 | 0.051 | 0.051 | – | –
7 | COCCN1C2CCC1CC(N1CCC(c3cc(C)c4nc(-c5ccc(S(C)(=O)=O)cc5)n(C)c4c3)CC1)C2 (single isomer, unassigned) [Example 162, 6-(1-(8-(2-methoxyethyl)-8-azabicyclo[3.2.1]octan-3-yl)piperidin-4-yl)-1,4-dimethyl-2-(4-(methylsulfonyl)phenyl)-1H-benzo[d]imidazole] | > 25 | 19.9 | 0.061 | 0.061 | – | –
8 | COCCN1C2CCC1CC(N1CCC(c3ccc4nc(-c5ccc(S(C)(=O)=O)cc5)n(C)c4c3F)CC1)C2 (single isomer, unassigned) [Example 277, 7-fluoro-6-(1-(8-(2-methoxyethyl)-8-azabicyclo[3.2.1]octan-3-yl)piperidin-4-yl)-1-methyl-2-(4-(methylsulfonyl)phenyl)-1H-benzo[d]imidazole] | 16.3 | 1 | 0.27 | 0.269 | – | –
